The assay deals with Plasmodium berghei. The assay is described as follows: Luciferase/luciferin-expressing antifolate-resistant parasites were used to infect a culture of HepG2 cells that were pre-incubated with compounds. Infected hepatocytes emit light due to the luciferase reaction. Assay results are presented as the percent inhibition of light emission compared to control. […]. Type of assay: functional. The note with it: sporozoite; for IC90: read-out: LUCIFERASE INFECTION ASSAY - IC90.

The text below walks through data of ChEMBL document CHEMBL4483862, “Open-source discovery of chemical leads for next-generation chemoprotective antimalarials” (2018).

Regarding `Cc1cc(C(C)(C)C)cc(C)c1COC(=O)c1cccnc1`, the IC90 is over 10 µM. In addition, under “HEPG2TOX_HILL_SLOPE 2.37, HEPG2TOX_R_SQUARED 0.0156, PBLUC_HILL_SLOPE 8.85, PBLUC_R_SQUARED 0.304, read-out: LUCIFERASE INFECTION ASSAY - IC50”, the IC50 was 8.03 µM.
Regarding `CN(C(=O)CSc1nnc(COc2ccccc2F)n1N)C1CCCCC1`, the 90% effect concentration (IC90) stood at 6.57 µM. Moreover, the IC50 (HEPG2TOX_HILL_SLOPE 2.33, HEPG2TOX_R_SQUARED 0.96, PBLUC_HILL_SLOPE 2.14, PBLUC_R_SQUARED 0.67, read-out: LUCIFERASE INFECTION ASSAY - IC50) is 2.35 µM.
Take `CC(=O)Nc1ncc2c(Cl)cccc2n1`: the IC90 was over 14.9 µM. Also, the IC50 (HEPG2TOX_HILL_SLOPE 2.36, HEPG2TOX_R_SQUARED 0.885, PBLUC_HILL_SLOPE 2.93, PBLUC_R_SQUARED 0.162, read-out: LUCIFERASE INFECTION ASSAY - IC50) is 7.84 µM.
On to `CCCNc1ccc2ncc(-c3ccc(OC)c(OC)c3)n2n1`, for which the IC90 was determined as 2.73 µM. For the same molecule, the concentration for half-maximal inhibition (IC50) (HEPG2TOX_HILL_SLOPE 2.36, HEPG2TOX_R_SQUARED 0.919, PBLUC_HILL_SLOPE 2.02, PBLUC_R_SQUARED 0.782, read-out: LUCIFERASE INFECTION ASSAY - IC50) was 0.918 µM.
Regarding `N#Cc1ccsc1NC(=O)COC(=O)c1c2c(nc3ccccc13)/C(=C/c1cccc([N+](=O)[O-])c1)CCC2`, the IC90 was over 10 µM. In addition, the IC50 (HEPG2TOX_HILL_SLOPE 2.36, HEPG2TOX_R_SQUARED 0.622, PBLUC_HILL_SLOPE 3.04, PBLUC_R_SQUARED 0.408, read-out: LUCIFERASE INFECTION ASSAY - IC50) came out at 7.71 µM.
For `CNC(=O)N(C1=NCC(C)(C)S1)c1cccc(C(F)(F)F)c1`, the IC90 is over 9.96 µM. For the same molecule, the IC50 (HEPG2TOX_HILL_SLOPE 2.33, HEPG2TOX_R_SQUARED 0.841, PBLUC_HILL_SLOPE 2.51, PBLUC_R_SQUARED 0.0629, read-out: LUCIFERASE INFECTION ASSAY - IC50) is 7.95 µM.
On to `CN(Cc1ccc(C(N)=O)cc1)c1ncnc2ccccc12`, for which the IC90 was determined as 1.53 µM. Under “HEPG2TOX_HILL_SLOPE 2.36, HEPG2TOX_R_SQUARED 0.863, PBLUC_HILL_SLOPE 14.7, PBLUC_R_SQUARED 0.585, read-out: LUCIFERASE INFECTION ASSAY - IC50”, the concentration for half-maximal inhibition (IC50) is 1.32 µM.
As to `COc1cccc(CN(C)c2ncnc3sc(C)c(C)c23)c1OC`, the IC90 was determined as 3.84 µM. In addition, the IC50 (HEPG2TOX_HILL_SLOPE 2.36, HEPG2TOX_R_SQUARED 0.798, PBLUC_HILL_SLOPE 15.6, PBLUC_R_SQUARED 0.417, read-out: LUCIFERASE INFECTION ASSAY - IC50) came out at 3.34 µM.
In the case of `OCc1ccc(-c2ccc3ncc(-c4cccc(CO)c4)n3n2)cc1`, the IC90 was 2.83 µM. The IC50 (HEPG2TOX_HILL_SLOPE 2.34, HEPG2TOX_R_SQUARED 0.973, PBLUC_HILL_SLOPE 2.94, PBLUC_R_SQUARED 0.59, read-out: LUCIFERASE INFECTION ASSAY - IC50) was 1.34 µM.
With `CC(C)(C)c1ccc(NC(=O)c2ccc(CCNS(C)(=O)=O)cc2)cc1`, the concentration for an effect of 90% (IC90) worked out at 3.46 µM. In addition, the IC50 (HEPG2TOX_HILL_SLOPE 2.32, HEPG2TOX_R_SQUARED 0.971, PBLUC_HILL_SLOPE 55.7, PBLUC_R_SQUARED 0.572, read-out: LUCIFERASE INFECTION ASSAY - IC50) was found to be 3.32 µM.
In the case of `O=C(c1cccc(-c2ccncc2)c1)c1cnc(Nc2cccc(Br)c2)[nH]1`, the IC90 was 2.54 µM. The IC50 (HEPG2TOX_HILL_SLOPE 2.34, HEPG2TOX_R_SQUARED 0.815, PBLUC_HILL_SLOPE 3.59, PBLUC_R_SQUARED 0.729, read-out: LUCIFERASE INFECTION ASSAY - IC50) is 1.38 µM.
For `O=C(NCc1cccs1)C1Cc2c(-c3ccccc3)ccnc2O1` (stereo not drawn), the IC90 is 6.65 µM. The IC50 (HEPG2TOX_HILL_SLOPE 2.36, HEPG2TOX_R_SQUARED 0.977, PBLUC_HILL_SLOPE 2.08, PBLUC_R_SQUARED 0.632, read-out: LUCIFERASE INFECTION ASSAY - IC50) was found to be 2.31 µM.
As for `Cc1cc(C)nc(NNC(=S)NC(=O)C23CC4CC(CC(C4)C2)C3)n1`, the IC90 turned out to be 3.62 µM. Further, the IC50 (HEPG2TOX_HILL_SLOPE 2.34, HEPG2TOX_R_SQUARED 0.811, PBLUC_HILL_SLOPE 12, PBLUC_R_SQUARED 0.36, read-out: LUCIFERASE INFECTION ASSAY - IC50) is 3.01 µM.
For the molecule `CCc1cc(=O)n2ncc(-c3ccc(Cl)cc3)c2[nH]1`, the IC90 worked out at 3.53 µM. In addition, under “HEPG2TOX_HILL_SLOPE 2.33, HEPG2TOX_R_SQUARED 0.563, PBLUC_HILL_SLOPE 7.25, PBLUC_R_SQUARED 0.422, read-out: LUCIFERASE INFECTION ASSAY - IC50”, the IC50 was determined as 2.61 µM.
For the molecule `COc1ccc(F)cc1-c1ccnc2n[nH]c(-c3ccc(Cl)cc3)c12`, the IC90 was over 10 µM. Also, the 50% inhibitory concentration (IC50) (HEPG2TOX_HILL_SLOPE 2.34, HEPG2TOX_R_SQUARED 0.976, PBLUC_HILL_SLOPE 1.09, PBLUC_R_SQUARED 0.396, read-out: LUCIFERASE INFECTION ASSAY - IC50) is 1.84 µM.
On to `CC1CCc2sc(C(=O)N/N=C/c3ccc(Cl)cc3Cl)cc2C1` (stereo not drawn), for which the IC90 was found to be 5.01 µM. The IC50 (HEPG2TOX_HILL_SLOPE 2.35, HEPG2TOX_R_SQUARED 0.954, PBLUC_HILL_SLOPE 8.15, PBLUC_R_SQUARED 0.258, read-out: LUCIFERASE INFECTION ASSAY - IC50) was determined as 3.82 µM.
Regarding `CN(C)c1cccc(Nc2nccc3[nH]c(-c4cccc(F)c4)cc23)c1`, the IC90 was found to be 1.41 µM. Besides, the IC50 (HEPG2TOX_HILL_SLOPE 2.36, HEPG2TOX_R_SQUARED 0.936, PBLUC_HILL_SLOPE 7.91, PBLUC_R_SQUARED 0.783, read-out: LUCIFERASE INFECTION ASSAY - IC50) worked out at 1.07 µM.
Take `O=S(=O)(c1ccc(Cl)c(NC(=S)N/N=C/c2ccc(O)cc2O)c1)N1CCOCC1`: the IC90 amounted to 8.73 µM. For the same molecule, under “HEPG2TOX_HILL_SLOPE 2.35, HEPG2TOX_R_SQUARED 0.922, PBLUC_HILL_SLOPE 5.37, PBLUC_R_SQUARED 0.597, read-out: LUCIFERASE INFECTION ASSAY - IC50”, the IC50 was determined as 5.8 µM.
As to `OCc1ccccc1-c1cn2c(-c3ccc4c(c3)OCO4)cnc2cn1`, the IC90 is over 9.56 µM. Also, under “HEPG2TOX_HILL_SLOPE 2.34, HEPG2TOX_R_SQUARED 0.695, PBLUC_HILL_SLOPE 2.89, PBLUC_R_SQUARED 0.35, read-out: LUCIFERASE INFECTION ASSAY - IC50”, the IC50 came out at 8.14 µM.
Regarding `OCc1cccc(-c2cnc3ccc(-c4ccc(F)cc4)nn23)c1`, the IC90 stood at 6.8 µM. Where the note is “HEPG2TOX_HILL_SLOPE 2.34, HEPG2TOX_R_SQUARED 0.934, PBLUC_HILL_SLOPE 3.16, PBLUC_R_SQUARED 0.564, read-out: LUCIFERASE INFECTION ASSAY - IC50”, the IC50 is 3.39 µM.
Consider `N#Cc1ccc(CNC(=S)Nc2ccc(Cl)c(Cl)c2)cc1`, for which the IC90 worked out at 9.71 µM. Further, the IC50 (HEPG2TOX_HILL_SLOPE 2.37, HEPG2TOX_R_SQUARED 0.471, PBLUC_HILL_SLOPE 2.37, PBLUC_R_SQUARED 0.613, read-out: LUCIFERASE INFECTION ASSAY - IC50) was determined as 3.85 µM.
For the molecule `COc1cc(OC)cc(-c2cnc3cnc(-c4ccc(Cl)cc4)cn23)c1`, the IC90 was 8.07 µM. In addition, for the setting “HEPG2TOX_HILL_SLOPE 2.36, HEPG2TOX_R_SQUARED 0.458, PBLUC_HILL_SLOPE 2.59, PBLUC_R_SQUARED 0.445, read-out: LUCIFERASE INFECTION ASSAY - IC50”, the IC50 is 3.46 µM.
As to `CC(C)(C)CC(C)(C)NC(=O)c1cccc(S(=O)(=O)N2CCc3ccccc32)c1`, the concentration for an effect of 90% (IC90) is over 10 µM. Also, the IC50 (HEPG2TOX_HILL_SLOPE 2.33, HEPG2TOX_R_SQUARED 0.906, PBLUC_HILL_SLOPE 19.2, PBLUC_R_SQUARED 0.577, read-out: LUCIFERASE INFECTION ASSAY - IC50) is 9.58 µM.
Regarding `COc1cc(C(O)(c2nc3ccccc3s2)C(F)(F)F)c(OC)cc1N` (stereo not drawn), the IC90 is over 10 µM. Besides, under “HEPG2TOX_HILL_SLOPE 2.34, HEPG2TOX_R_SQUARED 0.875, PBLUC_HILL_SLOPE 2.52, PBLUC_R_SQUARED 0.408, read-out: LUCIFERASE INFECTION ASSAY - IC50”, the IC50 stood at 6.31 µM.
Regarding `Cc1ccc2nc(NC(=O)c3ccccc3C)c(C(=O)NCC(C)C)n2c1`, the IC90 came to 9 µM. Further, the IC50 (HEPG2TOX_HILL_SLOPE 2.35, HEPG2TOX_R_SQUARED 0.51, PBLUC_HILL_SLOPE 14.9, PBLUC_R_SQUARED 0.347, read-out: LUCIFERASE INFECTION ASSAY - IC50) was 7.76 µM.
Consider `Cc1cc(N(Cc2ccc(C(C)C)cc2)C2CC2)n2ncnc2n1`, for which the 90% effect concentration (IC90) was over 10 µM. Also, the IC50 (HEPG2TOX_HILL_SLOPE 2.35, HEPG2TOX_R_SQUARED 0.908, PBLUC_HILL_SLOPE 2.49, PBLUC_R_SQUARED 0.764, read-out: LUCIFERASE INFECTION ASSAY - IC50) stood at 4.95 µM.
With `CC(C)(C)c1ccc(-c2ccc(OCCN3CCOCC3)nc2)cc1`, the IC90 is over 9.69 µM. Besides, the IC50 (HEPG2TOX_HILL_SLOPE 2.33, HEPG2TOX_R_SQUARED 0.966, PBLUC_HILL_SLOPE 2.69, PBLUC_R_SQUARED 0.584, read-out: LUCIFERASE INFECTION ASSAY - IC50) was 4.35 µM.
`CC(C)(C)NC(=S)Nc1ccccc1N1CCCCC1`: the IC90 is over 11.3 µM. In addition, the IC50 (HEPG2TOX_HILL_SLOPE 2.33, HEPG2TOX_R_SQUARED 0.936, read-out: LUCIFERASE INFECTION ASSAY - IC50) was over 11.3 µM.
In the case of `CC1CC1c1ccc(/C=C/C(=O)NNC(=S)NCC2CCCO2)o1` (stereo not drawn), the IC90 is 3.79 µM. Moreover, the IC50 (HEPG2TOX_HILL_SLOPE 2.34, HEPG2TOX_R_SQUARED 0.989, PBLUC_HILL_SLOPE 14.4, PBLUC_R_SQUARED 0.432, read-out: LUCIFERASE INFECTION ASSAY - IC50) stood at 3.25 µM.
